Tests used:
Assay type in all cases: in vivo
[1] = tested on: Cyperus difformis (smallflower umbrella plant); test: Test Example-1: herbicidal effect by a treatment before weeds are generated under submerged conditions; conditions: 500 g a.i/ha, pre-emergence treatment, about 15 days after treatment, score 0-5
Procedure, shortened: (§1)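 This is a pre-emergence test under flooding: compound formulations were applied into the water at a set dosage on the day weeds were sown in puddled paddy soil. Weed control was rated on a six-step 0–5 scale roughly 15 days later.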

[2] = tested on: Echinochloa oryzicola (barnyard grass); test: as above; conditions: 500 g a.i/ha, pre-emergence treatment, about 15 days after treatment, score 0-5
Procedure, shortened: as §1

[3] = tested on: Eleocharis acicularis (needle spikerush); test: as above; conditions: 500 g a.i/ha, pre-emergence treatment, about 15 days after treatment, score 0-5
Procedure, shortened: as §1

[4] = tested on: Monochoria vaginalis (monochoria); test: as above; conditions: 500 g a.i/ha, pre-emergence treatment, about 15 days after treatment, score 0-5
Procedure, shortened: as §1

[5] = tested on: other annual broad leaf weeds (Lindernia procumbens, Rotala indica, Elatine triandra); test: as above; conditions: 500 g a.i/ha, pre-emergence treatment, about 15 days after treatment, score 0-5
Procedure, shortened: as §1

[6] = tested on: Scirpus juncoides (bulrush); test: as above; conditions: 500 g a.i/ha, pre-emergence treatment, about 15 days after treatment, score 0-5
Procedure, shortened: as §1

corn [7] = test: Test Example-2: phytotoxicity by a soil treatment before weeds are generated under upland field conditions; conditions: application amount 500 g a.i/ha, soil spray treatment before weeds are generated, about 21 days after the treatment, score 0 to 5
Source text: (§2) Using the formulation prepared according to the methods described above, the herbicidal effect of the bicyclic pyrazolinone derivative of the invention according to the methods shown in Test Examples below was examined. The herbicidal effect with respect to the test weeds or the phytotoxicity with respect to the test crops was examined according to the following criteria, and evaluated in six stage scores of 0 to 5. A vat having an area of 81 cm^2 and a depth of 3.5 cm was filled with upland soil, then, seeds of Amaranthus viridis (green amaranthus), Chenopodium album (common lambsquarters), and corn were seeded thereto, and the seeds were covered with soil of about 0.5 cm. Next day, a wettable powder or an emulsifiable concentrate of the compound of the present invention prepared according to Formulation Example was diluted, and a spray treatment was uniformly performed on the covered oil so as to be a predetermined dosage. The herbicidal effect with respect to the test weeds and the phytotoxicity with respect to corn about 21 days after the treatment were evaluated according to the evaluation criteria in six stages of 0 to 5 described above.

[8] = tested on: Amaranthus viridis (green amaranthus); test: Test Example-2: herbicidal effect by a soil treatment before weeds are generated under upland field conditions; conditions: application amount 500 g a.i/ha, soil spray treatment before weeds are generated, about 21 days after the treatment, score 0 to 5
Source text: as §2

[9] = tested on: Chenopodium album (common lambsquarters); test: as above; conditions: application amount 500 g a.i/ha, soil spray treatment before weeds are generated, about 21 days after the treatment, score 0 to 5
Source text: as §2

[10] = tested on: Amaranthus viridis (green amaranthus); test: Test Example-4: herbicidal effect by a foliage treatment after weeds are generated under upland field conditions; conditions: 500 g a.i/ha, foliage treatment after emergence, about 14 days after treatment, score 0-5
Procedure, shortened: (§3)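 Post-emergence foliar test: wettable powder or emulsifiable concentrate was diluted and sprayed at 4000 L water/ha at a set dosage onto plants raised 14 days from seed in upland soil. Herbicidal effect and corn injury were rated 0–5 roughly 14 days later.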

[11] = tested on: Chenopodium album (common lambsquarters); test: as above; conditions: 500 g a.i/ha, foliage treatment after emergence, about 14 days after treatment, score 0-5
Procedure, shortened: as §3

[12] = tested on: Abutilon theophrasti (velvetleaf); test: as above; conditions: 500 g a.i/ha, foliage treatment after emergence, about 14 days after treatment, score 0-5
Procedure, shortened: as §3

corn [13] = test: Test Example-4: phytotoxicity by a foliage treatment after weeds are generated under upland field conditions; conditions: 500 g a.i/ha, foliage treatment after emergence, about 14 days after treatment, score 0-5
Procedure, shortened: as §3

CC(C)Oc1cc(-c2c(Cl)n3n(c2=O)CCCC3)c(F)cc1Cl [Example 1-151]
Herbicidal effect Cyperus difformis [1]: 5 (Herbicidal effect/phytotoxicity was 90% or greater)
Herbicidal effect Echinochloa oryzicola [2]: 5 (Herbicidal effect/phytotoxicity was 90% or greater)
Herbicidal effect Eleocharis acicularis [3]: 5 (Herbicidal effect/phytotoxicity was 90% or greater)
Herbicidal effect Monochoria vaginalis [4]: 5 (Herbicidal effect/phytotoxicity was 90% or greater)
Herbicidal effect Broadleaf weed [5]: 5 (Herbicidal effect/phytotoxicity was 90% or greater)
Herbicidal effect Scirpus juncoides [6]: 5 (Herbicidal effect/phytotoxicity was 90% or greater)
Phytotoxicity Corn (corn [7]): 0 (Herbicidal effect/phytotoxicity was 0% to 10%)
Herbicidal effect Amaranthus viridis [8]: 5 (Herbicidal effect/phytotoxicity was 90% or greater)
Herbicidal effect Chenopodium album [9]: 5 (Herbicidal effect/phytotoxicity was 90% or greater)
Herbicidal effect Amaranthus viridis [10]: 5 (Herbicidal effect/phytotoxicity was 90% or greater)
Herbicidal effect Chenopodium album [11]: 5 (Herbicidal effect/phytotoxicity was 90% or greater)
Herbicidal effect Abutilon theophrast [12]: 5 (Herbicidal effect/phytotoxicity was 90% or greater)
Phytotoxicity Corn (corn [13]): 1 (Herbicidal effect/phytotoxicity was 10% to 30%)

C=C(C)COc1cc(-c2c(Cl)n3n(c2=O)CCCC3)c(F)cc1Cl [Example 1-214]
Herbicidal effect Cyperus difformis [1]: 5 (Herbicidal effect/phytotoxicity was 90% or greater)
Herbicidal effect Echinochloa oryzicola [2]: 5 (Herbicidal effect/phytotoxicity was 90% or greater)
Herbicidal effect Eleocharis acicularis [3]: 5 (Herbicidal effect/phytotoxicity was 90% or greater)
Herbicidal effect Monochoria vaginalis [4]: 5 (Herbicidal effect/phytotoxicity was 90% or greater)
Herbicidal effect Broadleaf weed [5]: 5 (Herbicidal effect/phytotoxicity was 90% or greater)
Herbicidal effect Scirpus juncoides [6]: 5 (Herbicidal effect/phytotoxicity was 90% or greater)
Phytotoxicity Corn (corn [7]): 0 (Herbicidal effect/phytotoxicity was 0% to 10%)
Herbicidal effect Amaranthus viridis [8]: 5 (Herbicidal effect/phytotoxicity was 90% or greater)
Herbicidal effect Chenopodium album [9]: 5 (Herbicidal effect/phytotoxicity was 90% or greater)
Herbicidal effect Amaranthus viridis [10]: 5 (Herbicidal effect/phytotoxicity was 90% or greater)
Herbicidal effect Chenopodium album [11]: 5 (Herbicidal effect/phytotoxicity was 90% or greater)
Herbicidal effect Abutilon theophrast [12]: 5 (Herbicidal effect/phytotoxicity was 90% or greater)
Phytotoxicity Corn (corn [13]): 2 (Herbicidal effect/phytotoxicity was 30% to 50%)

C#CCOc1cc(-c2c(F)n3n(c2=O)CCCC3)c(Cl)cc1Cl [Example 1-358]
Herbicidal effect Cyperus difformis [1]: 5 (Herbicidal effect/phytotoxicity was 90% or greater)
Herbicidal effect Echinochloa oryzicola [2]: 5 (Herbicidal effect/phytotoxicity was 90% or greater)
Herbicidal effect Eleocharis acicularis [3]: 5 (Herbicidal effect/phytotoxicity was 90% or greater)
Herbicidal effect Monochoria vaginalis [4]: 5 (Herbicidal effect/phytotoxicity was 90% or greater)
Herbicidal effect Broadleaf weed [5]: 5 (Herbicidal effect/phytotoxicity was 90% or greater)
Herbicidal effect Scirpus juncoides [6]: 5 (Herbicidal effect/phytotoxicity was 90% or greater)
Phytotoxicity Corn (corn [7]): 0 (Herbicidal effect/phytotoxicity was 0% to 10%)
Herbicidal effect Amaranthus viridis [8]: 5 (Herbicidal effect/phytotoxicity was 90% or greater)
Herbicidal effect Chenopodium album [9]: 5 (Herbicidal effect/phytotoxicity was 90% or greater)
Herbicidal effect Amaranthus viridis [10]: 5 (Herbicidal effect/phytotoxicity was 90% or greater)
Herbicidal effect Chenopodium album [11]: 5 (Herbicidal effect/phytotoxicity was 90% or greater)
Herbicidal effect Abutilon theophrast [12]: 5 (Herbicidal effect/phytotoxicity was 90% or greater)
Phytotoxicity Corn (corn [13]): 1 (Herbicidal effect/phytotoxicity was 10% to 30%)

C#CCOc1cc(-c2c(Cl)n3n(c2=O)CCOCC3)c(F)cc1F [Example 1-368]
Herbicidal effect Cyperus difformis [1]: 5 (Herbicidal effect/phytotoxicity was 90% or greater)
Herbicidal effect Echinochloa oryzicola [2]: 5 (Herbicidal effect/phytotoxicity was 90% or greater)
Herbicidal effect Eleocharis acicularis [3]: 5 (Herbicidal effect/phytotoxicity was 90% or greater)
Herbicidal effect Monochoria vaginalis [4]: 5 (Herbicidal effect/phytotoxicity was 90% or greater)
Herbicidal effect Broadleaf weed [5]: 5 (Herbicidal effect/phytotoxicity was 90% or greater)
Herbicidal effect Scirpus juncoides [6]: 5 (Herbicidal effect/phytotoxicity was 90% or greater)
Phytotoxicity Corn (corn [7]): 0 (Herbicidal effect/phytotoxicity was 0% to 10%)
Herbicidal effect Amaranthus viridis [8]: 5 (Herbicidal effect/phytotoxicity was 90% or greater)
Herbicidal effect Chenopodium album [9]: 5 (Herbicidal effect/phytotoxicity was 90% or greater)
Herbicidal effect Amaranthus viridis [10]: 5 (Herbicidal effect/phytotoxicity was 90% or greater)
Herbicidal effect Chenopodium album [11]: 5 (Herbicidal effect/phytotoxicity was 90% or greater)
Herbicidal effect Abutilon theophrast [12]: 5 (Herbicidal effect/phytotoxicity was 90% or greater)
Phytotoxicity Corn (corn [13]): 1 (Herbicidal effect/phytotoxicity was 10% to 30%)

COc1cc(-c2c(Cl)n3n(c2=O)CCCC3)c(Cl)cc1Cl [Example 1-292]
Herbicidal effect Cyperus difformis [1]: 5 (Herbicidal effect/phytotoxicity was 90% or greater)
Herbicidal effect Echinochloa oryzicola [2]: 5 (Herbicidal effect/phytotoxicity was 90% or greater)
Herbicidal effect Eleocharis acicularis [3]: 5 (Herbicidal effect/phytotoxicity was 90% or greater)
Herbicidal effect Monochoria vaginalis [4]: 5 (Herbicidal effect/phytotoxicity was 90% or greater)
Herbicidal effect Broadleaf weed [5]: 5 (Herbicidal effect/phytotoxicity was 90% or greater)
Herbicidal effect Scirpus juncoides [6]: 5 (Herbicidal effect/phytotoxicity was 90% or greater)
Phytotoxicity Corn (corn [7]): 2 (Herbicidal effect/phytotoxicity was 30% to 50%)
Herbicidal effect Amaranthus viridis [8]: 5 (Herbicidal effect/phytotoxicity was 90% or greater)
Herbicidal effect Chenopodium album [9]: 5 (Herbicidal effect/phytotoxicity was 90% or greater)
Herbicidal effect Amaranthus viridis [10]: 5 (Herbicidal effect/phytotoxicity was 90% or greater)
Herbicidal effect Chenopodium album [11]: 5 (Herbicidal effect/phytotoxicity was 90% or greater)
Herbicidal effect Abutilon theophrast [12]: 5 (Herbicidal effect/phytotoxicity was 90% or greater)
Phytotoxicity Corn (corn [13]): 1 (Herbicidal effect/phytotoxicity was 10% to 30%)

C#CCOc1cc(-c2c(Cl)n3n(c2=O)CCCC3)c(Cl)cc1Cl [Example 1-302]
Herbicidal effect Cyperus difformis [1]: 5 (Herbicidal effect/phytotoxicity was 90% or greater)
Herbicidal effect Echinochloa oryzicola [2]: 5 (Herbicidal effect/phytotoxicity was 90% or greater)
Herbicidal effect Eleocharis acicularis [3]: 5 (Herbicidal effect/phytotoxicity was 90% or greater)
Herbicidal effect Monochoria vaginalis [4]: 5 (Herbicidal effect/phytotoxicity was 90% or greater)
Herbicidal effect Broadleaf weed [5]: 5 (Herbicidal effect/phytotoxicity was 90% or greater)
Herbicidal effect Scirpus juncoides [6]: 5 (Herbicidal effect/phytotoxicity was 90% or greater)
Phytotoxicity Corn (corn [7]): 2 (Herbicidal effect/phytotoxicity was 30% to 50%)
Herbicidal effect Amaranthus viridis [8]: 5 (Herbicidal effect/phytotoxicity was 90% or greater)
Herbicidal effect Chenopodium album [9]: 5 (Herbicidal effect/phytotoxicity was 90% or greater)
Herbicidal effect Amaranthus viridis [10]: 5 (Herbicidal effect/phytotoxicity was 90% or greater)
Herbicidal effect Chenopodium album [11]: 5 (Herbicidal effect/phytotoxicity was 90% or greater)
Herbicidal effect Abutilon theophrast [12]: 5 (Herbicidal effect/phytotoxicity was 90% or greater)
Phytotoxicity Corn (corn [13]): 1 (Herbicidal effect/phytotoxicity was 10% to 30%)

C#CC(C)Oc1cc(-c2c(Cl)n3n(c2=O)CCOCC3)c(F)cc1Cl (stereo not shown) [Example 1-245]
Herbicidal effect Cyperus difformis [1]: 5 (Herbicidal effect/phytotoxicity was 90% or greater)
Herbicidal effect Echinochloa oryzicola [2]: 5 (Herbicidal effect/phytotoxicity was 90% or greater)
Herbicidal effect Eleocharis acicularis [3]: 5 (Herbicidal effect/phytotoxicity was 90% or greater)
Herbicidal effect Monochoria vaginalis [4]: 5 (Herbicidal effect/phytotoxicity was 90% or greater)
Herbicidal effect Broadleaf weed [5]: 5 (Herbicidal effect/phytotoxicity was 90% or greater)
Herbicidal effect Scirpus juncoides [6]: 5 (Herbicidal effect/phytotoxicity was 90% or greater)
Phytotoxicity Corn (corn [7]): 0 (Herbicidal effect/phytotoxicity was 0% to 10%)
Herbicidal effect Amaranthus viridis [8]: 5 (Herbicidal effect/phytotoxicity was 90% or greater)
Herbicidal effect Chenopodium album [9]: 5 (Herbicidal effect/phytotoxicity was 90% or greater)
Herbicidal effect Amaranthus viridis [10]: 5 (Herbicidal effect/phytotoxicity was 90% or greater)
Herbicidal effect Chenopodium album [11]: 5 (Herbicidal effect/phytotoxicity was 90% or greater)
Herbicidal effect Abutilon theophrast [12]: 5 (Herbicidal effect/phytotoxicity was 90% or greater)
Phytotoxicity Corn (corn [13]): 1 (Herbicidal effect/phytotoxicity was 10% to 30%)

— patent US9580444B2, “Polycyclic pyrazolinone derivative and herbicide comprising same as effective component thereof” (priority 2013, dated 2017)
